Consider 7 compounds from publication PMC10763615, “Identification and engineering of potent cyclic peptides with selective or promiscuous binding through biochemical profiling and bioinformatic data analysis” (RSC Chemical Biology, 2023).

Holding throughout (type): binding
One assay addresses T1, FGF-R3C ECD (Homo sapiens, UniProt P22607).
T1 sequence (P22607 23-375 limits assumed): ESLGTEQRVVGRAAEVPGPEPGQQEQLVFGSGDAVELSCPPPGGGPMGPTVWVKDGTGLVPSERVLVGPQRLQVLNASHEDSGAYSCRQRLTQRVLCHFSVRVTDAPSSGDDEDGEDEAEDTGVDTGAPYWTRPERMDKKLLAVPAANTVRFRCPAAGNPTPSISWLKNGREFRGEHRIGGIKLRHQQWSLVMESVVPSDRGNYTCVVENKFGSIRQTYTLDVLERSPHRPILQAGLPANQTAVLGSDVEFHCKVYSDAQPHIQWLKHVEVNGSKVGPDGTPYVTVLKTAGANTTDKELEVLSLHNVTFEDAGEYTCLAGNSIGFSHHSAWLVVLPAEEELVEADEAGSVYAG
Put plainly: biochemical. On the set-up: DNA constructs for the extracellular domain (ECD) of human FGF-; HPC4 (C); made in house; host or cells: HEK 293-6E. In outline: (§1)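 Streptavidin biosensors carrying biotinylated FGF receptor ECD were immersed in peptide (~1 μM for crude single-point runs, a concentration series for purified peptides) and then in peptide-free buffer. KD was obtained by fitting the BLI association and dissociation curves.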

Another assay concerns the target T2, FGF-R1C ECD (Homo sapiens, UniProt P11362).
T2 sequence (P11362 22-376 limits assumed): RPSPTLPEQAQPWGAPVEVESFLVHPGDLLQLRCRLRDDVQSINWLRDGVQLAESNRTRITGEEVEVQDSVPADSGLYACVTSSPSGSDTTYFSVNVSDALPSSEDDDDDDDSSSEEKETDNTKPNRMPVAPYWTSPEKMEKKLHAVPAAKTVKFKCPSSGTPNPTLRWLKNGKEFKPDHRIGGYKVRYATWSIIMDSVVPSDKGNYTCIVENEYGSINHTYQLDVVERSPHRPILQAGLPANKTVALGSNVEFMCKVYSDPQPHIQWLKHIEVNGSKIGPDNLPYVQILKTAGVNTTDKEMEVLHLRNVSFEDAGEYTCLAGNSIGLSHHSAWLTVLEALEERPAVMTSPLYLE
The experiment in a line: biochemical. On the set-up: DNA constructs for the extracellular domain (ECD) of human FGF-; HPC4 (C); made in house; host or cells: HEK 293-6E. In outline: as §1

In another assay the target is T3, FGF-R4 ECD (Homo sapiens, UniProt P22455).
T3 construct: DNA constructs for the extracellular domain (ECD) of human FGF-; HPC4 (C); made in house; host or cells: HEK 293-6E
T3 sequence (P22455 22-369 limits assumed): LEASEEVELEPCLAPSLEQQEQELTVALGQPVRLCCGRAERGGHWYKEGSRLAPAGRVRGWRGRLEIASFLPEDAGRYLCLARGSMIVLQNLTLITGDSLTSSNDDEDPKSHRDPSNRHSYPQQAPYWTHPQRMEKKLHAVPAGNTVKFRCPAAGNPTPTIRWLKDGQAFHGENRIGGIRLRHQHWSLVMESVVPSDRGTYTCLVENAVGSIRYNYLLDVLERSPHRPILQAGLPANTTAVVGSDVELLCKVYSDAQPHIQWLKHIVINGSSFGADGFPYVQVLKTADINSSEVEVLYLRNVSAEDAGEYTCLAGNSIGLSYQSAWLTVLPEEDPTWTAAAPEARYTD
Put plainly: single concentration BLI of crude peptides. The settings on record: read-out: KD (4). In short, it runs like this: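 Biotinylated FGF-R ECD on streptavidin biosensors was dipped into ~1 μM crude peptide in PBS pH7.4 with 0.05% Tween-20 and 0.01% BSA for association, then into buffer for dissociation, and followed by BLI. Fitted KD values were adjusted for peptide concentration measured by UPLC-CAD.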

The mark [1] stands for this setting: crude T18 selection 1 (1:1:1) peptides, single concentration BLI (Table S4).

Like-named read-outs stand apart in the source and are kept apart here. Positions of bridges follow the written chain, without caps; N, C: chain ends. Residues, ends and D or L forms follow the SMILES beside them. Where only a bound is given, the exact number is not on record here.

`CSCC[C@H](NC(C)=O)C(=O)N[C@H]1CSSC[C@@H](C(=O)NCC(=O)N[C@@H](CO)C(=O)NCC(=O)N[C@@H](CO)C(=O)N[C@@H](CC(=O)O)C(=O)N[C@@H](Cc2ccc(O)cc2)C(=O)N[C@@H](CCCCN)C(=O)N[C@@H](CC(=O)O)C(=O)N[C@@H](CC(=O)O)C(=O)N[C@@H](CC(=O)O)C(=O)N[C@@H](CC(=O)O)C(=O)N[C@@H](CCCCN)C(N)=O)NC(=O)[C@H](CCC(N)=O)NC(=O)[C@H](CCCNC(=N)N)NC(=O)[C@H](CCCCN)NC(=O)[C@H](C(C)C)NC(=O)[C@H](CC(C)C)NC(=O)[C@H](CC(C)C)NC(=O)[C@H](Cc2ccc(O)cc2)NC(=O)[C@H](Cc2ccc(O)cc2)NC(=O)[C@H](Cc2ccccc2)NC(=O)[C@H](CC(C)C)NC(=O)[C@H](Cc2c[nH]cn2)NC(=O)[C@H](CCC(=O)O)NC1=O` (Ac-MCEHLFYYLLVKRQCGSGSDYKDDDDK-NH2; disulfide 2-15): the equilibrium dissociation constant (Kd) is above 10 µM on FGF-R3C ECD, above 10 µM at FGF-R1C ECD and 1 nM on FGF-R4 ECD (setting [1]).
Turning to `CSCC[C@H](NC(C)=O)C(=O)N[C@H]1CSSC[C@@H](C(=O)NCC(=O)N[C@@H](CO)C(=O)NCC(=O)N[C@@H](CO)C(=O)N[C@@H](CC(=O)O)C(=O)N[C@@H](Cc2ccc(O)cc2)C(=O)N[C@@H](CCCCN)C(=O)N[C@@H](CC(=O)O)C(=O)N[C@@H](CC(=O)O)C(=O)N[C@@H](CC(=O)O)C(=O)N[C@@H](CC(=O)O)C(=O)N[C@@H](CCCCN)C(N)=O)NC(=O)[C@@H]2CCCN2C(=O)[C@H](Cc2ccc(O)cc2)NC(=O)[C@H](Cc2c[nH]c3ccccc23)NC(=O)[C@H](Cc2ccc(O)cc2)NC(=O)[C@H](CC(N)=O)NC(=O)[C@H](CO)NC(=O)[C@H](Cc2c[nH]c3ccccc23)NC(=O)[C@H](CCCNC(=N)N)NC(=O)[C@H](CO)NC(=O)[C@H](CCCNC(=N)N)NC(=O)[C@H](CCC(N)=O)NC(=O)[C@H](CCC(=O)O)NC1=O` (Ac-MCEQRSRWSNYWYPCGSGSDYKDDDDK-NH2; disulfide 2-15), the dissociation constant (Kd) on FGF-R3C ECD was above 10 µM; at FGF-R1C ECD, above 10 µM; at FGF-R4 ECD (setting [1]), above 10000 nM.
With `CC[C@H](C)[C@@H]1NC(=O)[C@H](CCC(=O)O)NC(=O)[C@H](CCCNC(=N)N)NC(=O)[C@H](CCCCN)NC(=O)[C@@H](NC(=O)[C@H](CCSC)NC(C)=O)CSSC[C@@H](C(=O)NCC(=O)N[C@@H](CO)C(=O)NCC(=O)N[C@@H](CO)C(=O)N[C@@H](CC(=O)O)C(=O)N[C@@H](Cc2ccc(O)cc2)C(=O)N[C@@H](CCCCN)C(=O)N[C@@H](CC(=O)O)C(=O)N[C@@H](CC(=O)O)C(=O)N[C@@H](CC(=O)O)C(=O)N[C@@H](CC(=O)O)C(=O)N[C@@H](CCCCN)C(N)=O)NC(=O)[C@H](Cc2ccccc2)NC(=O)[C@H](C(C)C)NC(=O)[C@H](CC(C)C)NC(=O)[C@H](Cc2c[nH]c3ccccc23)NC(=O)[C@H](Cc2ccc(O)cc2)NC(=O)[C@H](CCCCN)NC1=O` (Ac-MCKREIKYWLVFCGSGSDYKDDDDK-NH2; disulfide 2-13), the figures for the Kd on FGF-R3C ECD, at FGF-R1C ECD and at FGF-R4 ECD (setting [1]) were above 10 µM, above 10 µM and 8 nM, respectively.
For the compound `CSCC[C@H](NC(C)=O)C(=O)N[C@H]1CSSC[C@@H](C(=O)NCC(=O)N[C@@H](CO)C(=O)NCC(=O)N[C@@H](CO)C(=O)N[C@@H](CC(=O)O)C(=O)N[C@@H](Cc2ccc(O)cc2)C(=O)N[C@@H](CCCCN)C(=O)N[C@@H](CC(=O)O)C(=O)N[C@@H](CC(=O)O)C(=O)N[C@@H](CC(=O)O)C(=O)N[C@@H](CC(=O)O)C(=O)N[C@@H](CCCCN)C(N)=O)NC(=O)[C@H]([C@@H](C)O)NC(=O)[C@H](CCSC)NC(=O)[C@H](CC(C)C)NC(=O)[C@H](CCCNC(=N)N)NC(=O)[C@H](Cc2c[nH]c3ccccc23)NC(=O)[C@H](CC(C)C)NC(=O)[C@H](CC(C)C)NC(=O)[C@H](Cc2ccccc2)NC(=O)[C@H](Cc2ccc(O)cc2)NC(=O)[C@H](CCCCN)NC(=O)[C@@H]2CCCN2C1=O` (Ac-MCPKYFLLWRLMTCGSGSDYKDDDDK-NH2; disulfide 2-14), the Kd at FGF-R3C ECD is above 10 µM; on FGF-R1C ECD, above 10 µM; on FGF-R4 ECD (crude NNK peptides, single concentration BLI (Table S3)), 1840 nM.
On to `CSCC[C@H](NC(C)=O)C(=O)N[C@H]1CSSC[C@@H](C(=O)NCC(=O)N[C@@H](CO)C(=O)NCC(=O)N[C@@H](CO)C(=O)N[C@@H](CC(=O)O)C(=O)N[C@@H](Cc2ccc(O)cc2)C(=O)N[C@@H](CCCCN)C(=O)N[C@@H](CC(=O)O)C(=O)N[C@@H](CC(=O)O)C(=O)N[C@@H](CC(=O)O)C(=O)N[C@@H](CC(=O)O)C(=O)N[C@@H](CCCCN)C(N)=O)NC(=O)[C@H](CC(=O)O)NC(=O)[C@H](CCCNC(=N)N)NC(=O)[C@H](Cc2c[nH]c3ccccc23)NC(=O)[C@H](CC(=O)O)NC(=O)[C@H](Cc2c[nH]cn2)NC(=O)[C@H](Cc2c[nH]c3ccccc23)NC(=O)[C@H](CC(=O)O)NC(=O)[C@H](Cc2ccc(O)cc2)NC(=O)[C@H](Cc2ccc(O)cc2)NC(=O)[C@H](CC(=O)O)NC(=O)[C@H](Cc2ccc(O)cc2)NC(=O)[C@@H]2CCCN2C1=O` (Ac-MCPYDYYDWHDWRDCGSGSDYKDDDDK-NH2; disulfide 2-15), for which the Kd was above 10 µM on FGF-R3C ECD, above 10 µM on FGF-R1C ECD and 1590 nM on FGF-R4 ECD (setting [1]).
In the case of `CSCC[C@H](NC(C)=O)C(=O)N[C@H]1CSSC[C@@H](C(=O)NCC(=O)N[C@@H](CO)C(=O)NCC(=O)N[C@@H](CO)C(=O)N[C@@H](CC(=O)O)C(=O)N[C@@H](Cc2ccc(O)cc2)C(=O)N[C@@H](CCCCN)C(=O)N[C@@H](CC(=O)O)C(=O)N[C@@H](CC(=O)O)C(=O)N[C@@H](CC(=O)O)C(=O)N[C@@H](CC(=O)O)C(=O)N[C@@H](CCCCN)C(N)=O)NC(=O)[C@H](CC(C)C)NC(=O)[C@H](CCCNC(=N)N)NC(=O)[C@H](CCC(=O)O)NC(=O)[C@H](Cc2c[nH]c3ccccc23)NC(=O)[C@H](Cc2ccc(O)cc2)NC(=O)[C@H](Cc2ccccc2)NC(=O)[C@H](CO)NC(=O)[C@H](Cc2c[nH]cn2)NC(=O)[C@H](CCC(N)=O)NC(=O)[C@H](CC(=O)O)NC(=O)[C@H](Cc2ccc(O)cc2)NC(=O)[C@H](Cc2c[nH]c3ccccc23)NC1=O` (Ac-MCWYDQHSFYWERLCGSGSDYKDDDDK-NH2; disulfide 2-15), the Kd at FGF-R3C ECD was above 10 µM; on FGF-R1C ECD, above 10 µM; at FGF-R4 ECD (setting [1]), above 10000 nM.
Take `CSCC[C@H](NC(C)=O)C(=O)N[C@H]1CSSC[C@@H](C(=O)NCC(=O)N[C@@H](CO)C(=O)NCC(=O)N[C@@H](CO)C(=O)N[C@@H](CC(=O)O)C(=O)N[C@@H](Cc2ccc(O)cc2)C(=O)N[C@@H](CCCCN)C(=O)N[C@@H](CC(=O)O)C(=O)N[C@@H](CC(=O)O)C(=O)N[C@@H](CC(=O)O)C(=O)N[C@@H](CC(=O)O)C(=O)N[C@@H](CCCCN)C(N)=O)NC(=O)[C@H](CCCCN)NC(=O)[C@H](CCCNC(=N)N)NC(=O)[C@H](Cc2c[nH]cn2)NC(=O)[C@H](C(C)C)NC(=O)[C@H](CC(C)C)NC(=O)[C@H](CCC(N)=O)NC(=O)[C@H](Cc2ccc(O)cc2)NC(=O)[C@H](Cc2ccc(O)cc2)NC(=O)[C@H](CCCCN)NC(=O)[C@H](C(C)C)NC(=O)[C@H](Cc2c[nH]c3ccccc23)NC(=O)[C@H](CCCNC(=N)N)NC1=O` (Ac-MCRWVKYYQLVHRKCGSGSDYKDDDDK-NH2; disulfide 2-15): the dissociation constant (Kd) at FGF-R3C ECD was above 10 µM; on FGF-R1C ECD it was above 10 µM; on FGF-R4 ECD (setting [1]), 1 nM.
